The source of these data is ChEMBL document CHEMBL4376867 (J Med Chem, 2020).

Series [1] in a line: Apparent permeability of compound across basal to apical membrane in human Caco2 cells at 2 uM in DMSO after 2 hrs by LC-MS/MS analysis. In kind it is ADME, cell-based. The note with it: Caco-2. For orientation: Passage across Caco-2 layers is used to estimate intestinal permeability.
For another series, the system named is ACHN. Kind of series: Antiproliferative activity against human ACHN cells harboring CDKN2A mutation assessed as reduction in cell viability after 96 hrs by CellTiter-Glo luminescence assay. Type of series: functional, cell-based. On the technique in general: Cellular ATP, detected with luciferase, serves as a proxy for viable cell number.
A short description of series [2]: Efflux ratio of apparent permeability across basolateral to apical membrane over apical to basolateral membrane in human Caco2 cells. Type of series: ADME, cell-based. The note with it: Caco-2.
Series [3] can be described thus: Apparent permeability of compound across apical to basal membrane in human Caco2 cells at 2 uM in DMSO after 2 hrs by LC-MS/MS analysis. Particulars: Caco-2. Type of series: ADME, cell-based.
The subject of a further series is SK-MEL-2. The series can be described thus: Antiproliferative activity against human SK-MEL-2 cells harboring NRAS/TP53 mutation assessed as reduction in cell viability after 96 hrs by CellTiter-Glo luminescence assay. In kind it is functional, cell-based. The note with it: SK-MEL-2, 96 h.
Series [4] addresses T1, Serine/threonine-protein kinase TBK1 (Homo sapiens, UniProt Q9UHD2).
T1 sequence (Q9UHD2 whole entry): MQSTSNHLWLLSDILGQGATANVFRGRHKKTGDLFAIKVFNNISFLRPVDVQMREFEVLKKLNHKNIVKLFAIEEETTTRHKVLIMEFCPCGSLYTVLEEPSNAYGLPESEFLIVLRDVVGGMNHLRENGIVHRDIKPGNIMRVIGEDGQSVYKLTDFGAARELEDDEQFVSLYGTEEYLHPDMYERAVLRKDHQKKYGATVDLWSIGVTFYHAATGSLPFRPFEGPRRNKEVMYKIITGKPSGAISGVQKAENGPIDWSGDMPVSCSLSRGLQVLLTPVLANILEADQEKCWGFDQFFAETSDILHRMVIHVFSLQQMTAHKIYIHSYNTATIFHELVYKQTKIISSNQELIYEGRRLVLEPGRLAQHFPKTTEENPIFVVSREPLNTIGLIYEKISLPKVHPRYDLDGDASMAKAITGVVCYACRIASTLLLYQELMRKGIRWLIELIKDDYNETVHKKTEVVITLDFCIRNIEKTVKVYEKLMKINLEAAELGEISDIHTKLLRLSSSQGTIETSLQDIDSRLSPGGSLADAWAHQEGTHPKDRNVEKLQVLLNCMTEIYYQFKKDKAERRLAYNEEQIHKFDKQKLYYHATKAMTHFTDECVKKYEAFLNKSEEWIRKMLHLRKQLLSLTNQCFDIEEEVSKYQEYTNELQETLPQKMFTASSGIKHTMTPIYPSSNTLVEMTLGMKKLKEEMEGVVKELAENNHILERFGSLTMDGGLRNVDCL
Kind of series: Inhibition of recombinant full length human N-terminal His-tagged TBK1 using biotin-labelled Ahx-GDEDFSSFAEPG peptide as substrate preincubated with enzyme for 15 mins followed by substrate addition and further incubated for 30 mins in presence of 1 mM of ATP by TR-FRET assay. For orientation: Time-resolved FRET reads energy transfer from a long-lived donor to a nearby acceptor.

Series [5] has as its target T1, Serine/threonine-protein kinase TBK1.
A further series has as its target CDK9/cyclin T1 (Homo sapiens, UniProt P50750). Kind of series: Inhibition of recombinant full length human His-tagged CDK9/CyclinT1 expressed in baculovirus expression system using biotin-labelled Ttds-YISPLKSPYKISEG peptide as substrate preincubated with enzyme for 15 mins followed by substrate addition and further incubated for 25 mins presence of 10 uM of ATP by TR-FRET assay.

Series [6] deals with T2, Inhibitor of nuclear factor kappa-B kinase subunit epsilon (Homo sapiens, UniProt Q14164).
T2 sequence (Q14164 whole entry): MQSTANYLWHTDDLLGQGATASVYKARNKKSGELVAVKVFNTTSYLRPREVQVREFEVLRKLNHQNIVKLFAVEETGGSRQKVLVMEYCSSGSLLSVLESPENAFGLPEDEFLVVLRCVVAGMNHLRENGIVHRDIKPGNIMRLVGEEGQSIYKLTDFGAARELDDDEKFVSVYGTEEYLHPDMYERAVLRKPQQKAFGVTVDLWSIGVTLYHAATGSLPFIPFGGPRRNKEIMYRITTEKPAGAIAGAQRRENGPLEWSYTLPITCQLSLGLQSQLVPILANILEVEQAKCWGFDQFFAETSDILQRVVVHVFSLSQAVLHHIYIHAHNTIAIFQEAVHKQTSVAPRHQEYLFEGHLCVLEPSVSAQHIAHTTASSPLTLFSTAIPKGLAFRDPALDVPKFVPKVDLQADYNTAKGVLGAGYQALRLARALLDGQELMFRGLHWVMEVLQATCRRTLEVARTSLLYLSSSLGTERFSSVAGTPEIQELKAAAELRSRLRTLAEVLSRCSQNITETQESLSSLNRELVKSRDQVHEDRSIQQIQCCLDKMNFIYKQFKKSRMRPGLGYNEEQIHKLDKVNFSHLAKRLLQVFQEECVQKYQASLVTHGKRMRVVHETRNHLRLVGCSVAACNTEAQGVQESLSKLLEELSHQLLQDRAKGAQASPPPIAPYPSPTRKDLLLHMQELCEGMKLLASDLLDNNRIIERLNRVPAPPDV
Kind of series: Inhibition of recombinant full length human C-terminal GST-tagged IKKepsilon expressed in baculovirus expression system using biotin-labelled Ahx-GDEDFSSFAEPG peptide as substrate preincubated with enzyme for 15 mins followed by substrate addition and further incubated for 30 mins in presence of 10 uM of ATP by TR-FRET assay.

A further series concerns the target T3, IKK epsilon/TBK1 (Homo sapiens, UniProt Q14164+Q9UHD2).
T3 sequence (Q14164 whole entry): T2 sequence (Q14164 whole entry)
T3 sequence (Q9UHD2 whole entry): T1 sequence (Q9UHD2 whole entry)
The series can be described thus: Inhibition of IKKepsilon/TBK1 in human MDB-MB-231 cells transduced with lentiviral vector expressing human IRF3 assessed as decrease in poly(I:C)-stimulated IRF3 phosphorylation at S385/386 residues preincubated for 1 hr followed by poly(I:C) addition and measured after 1 hr. In kind it is cell-based.

The target of series [7] is T4, Receptor-type tyrosine-protein kinase FLT3 (Homo sapiens, UniProt P36888).
T4 sequence (P36888 whole entry): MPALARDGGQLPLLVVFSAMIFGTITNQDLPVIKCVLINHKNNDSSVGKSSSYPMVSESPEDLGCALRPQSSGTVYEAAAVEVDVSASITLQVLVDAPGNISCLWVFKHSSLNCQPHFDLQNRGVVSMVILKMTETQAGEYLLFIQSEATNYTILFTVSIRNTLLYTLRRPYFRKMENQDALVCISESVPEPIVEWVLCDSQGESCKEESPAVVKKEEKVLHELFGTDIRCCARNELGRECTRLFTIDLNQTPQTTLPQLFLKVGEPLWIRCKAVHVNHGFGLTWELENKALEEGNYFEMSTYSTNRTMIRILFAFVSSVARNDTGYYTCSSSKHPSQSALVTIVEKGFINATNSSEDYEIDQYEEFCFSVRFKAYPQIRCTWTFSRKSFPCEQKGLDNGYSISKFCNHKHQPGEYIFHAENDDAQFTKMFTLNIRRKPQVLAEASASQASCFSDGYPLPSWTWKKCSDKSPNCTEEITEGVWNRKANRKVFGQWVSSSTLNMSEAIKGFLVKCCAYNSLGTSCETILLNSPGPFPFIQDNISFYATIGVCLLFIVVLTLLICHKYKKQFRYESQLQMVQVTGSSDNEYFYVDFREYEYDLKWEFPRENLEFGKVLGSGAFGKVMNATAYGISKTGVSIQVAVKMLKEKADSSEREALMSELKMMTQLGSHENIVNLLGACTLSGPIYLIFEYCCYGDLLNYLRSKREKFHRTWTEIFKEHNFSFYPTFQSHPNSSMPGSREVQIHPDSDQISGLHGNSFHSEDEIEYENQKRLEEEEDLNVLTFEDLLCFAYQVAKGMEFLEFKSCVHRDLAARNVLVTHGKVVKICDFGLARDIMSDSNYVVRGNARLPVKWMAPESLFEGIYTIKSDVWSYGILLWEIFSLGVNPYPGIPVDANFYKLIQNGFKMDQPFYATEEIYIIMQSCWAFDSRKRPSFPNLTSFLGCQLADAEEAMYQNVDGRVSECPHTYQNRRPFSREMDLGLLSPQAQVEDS
The series can be described thus: Inhibition of recombinant human N-terminal GST-tagged FLT3 (564 to end residues) expressed in sf21 cells using biotin labelled Ahx-GGEEEEYFELVKKKK peptide as substrate preincubated with enzyme for 15 mins followed by substrate addition and further incubated for 45 mins in presence of 10 uM of ATP by TR-FRET assay.

The target in series [8] is Ribosomal protein S6 kinase alpha-6 (Homo sapiens, UniProt Q9UK32). Kind of series: Inhibition of recombinant full length human His6-tagged RSK4 expressed in baculovirus infected sf21 cells using biotin labelled Ahx-KKLNRTLSFAEPG peptide as substrate preincubated with enzyme for 15 mins followed by substrate addition and further incubated for 30 mins in presence of 10 uM of ATP by TR-FRET assay.

pIC50: −log10 of the molar value.

In general, Papp B→A refers to the apparent permeability from the basolateral to the apical side of a cell layer. The term pIC50 denotes the negative decadic logarithm of the IC50, by convention in mol/L. As usually defined, the efflux ratio is a quotient of directional permeabilities that is used to spot active efflux. The Papp A→B is how fast a substance crosses the layer from the apical side.

Chain of CDK9/cyclin T1 (O60563 whole entry): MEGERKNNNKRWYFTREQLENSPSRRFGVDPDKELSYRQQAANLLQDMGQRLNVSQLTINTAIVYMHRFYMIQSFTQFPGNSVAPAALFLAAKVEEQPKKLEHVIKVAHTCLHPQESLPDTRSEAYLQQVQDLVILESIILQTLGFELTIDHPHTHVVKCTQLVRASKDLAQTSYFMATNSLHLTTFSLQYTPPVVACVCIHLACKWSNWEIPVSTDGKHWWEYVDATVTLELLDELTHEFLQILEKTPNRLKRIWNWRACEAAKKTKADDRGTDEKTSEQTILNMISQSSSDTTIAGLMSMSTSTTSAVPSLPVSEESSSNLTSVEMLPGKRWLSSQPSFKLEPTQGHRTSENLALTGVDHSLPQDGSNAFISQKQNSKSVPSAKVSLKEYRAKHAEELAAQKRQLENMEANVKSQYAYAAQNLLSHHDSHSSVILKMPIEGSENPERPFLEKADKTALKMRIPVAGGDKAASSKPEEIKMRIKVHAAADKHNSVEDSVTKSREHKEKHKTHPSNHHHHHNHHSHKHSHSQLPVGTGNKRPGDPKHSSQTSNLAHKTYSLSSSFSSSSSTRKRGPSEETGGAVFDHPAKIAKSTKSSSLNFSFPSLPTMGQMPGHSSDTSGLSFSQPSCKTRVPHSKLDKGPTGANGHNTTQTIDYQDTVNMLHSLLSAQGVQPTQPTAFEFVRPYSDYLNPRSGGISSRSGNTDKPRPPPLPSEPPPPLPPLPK
Chain of CDK9/cyclin T1 (P50750 whole entry): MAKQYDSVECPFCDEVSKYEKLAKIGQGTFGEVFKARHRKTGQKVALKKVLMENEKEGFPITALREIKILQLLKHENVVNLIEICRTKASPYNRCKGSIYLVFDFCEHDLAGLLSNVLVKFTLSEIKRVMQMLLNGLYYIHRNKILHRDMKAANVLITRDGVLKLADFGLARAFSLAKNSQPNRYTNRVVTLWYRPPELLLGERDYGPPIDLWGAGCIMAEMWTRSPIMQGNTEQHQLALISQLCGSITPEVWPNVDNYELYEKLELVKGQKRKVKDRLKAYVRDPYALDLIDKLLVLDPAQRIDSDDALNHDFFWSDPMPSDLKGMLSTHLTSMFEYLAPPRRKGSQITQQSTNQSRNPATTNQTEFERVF
Chain of Ribosomal protein S6 kinase alpha-6 (Q9UK32 whole entry): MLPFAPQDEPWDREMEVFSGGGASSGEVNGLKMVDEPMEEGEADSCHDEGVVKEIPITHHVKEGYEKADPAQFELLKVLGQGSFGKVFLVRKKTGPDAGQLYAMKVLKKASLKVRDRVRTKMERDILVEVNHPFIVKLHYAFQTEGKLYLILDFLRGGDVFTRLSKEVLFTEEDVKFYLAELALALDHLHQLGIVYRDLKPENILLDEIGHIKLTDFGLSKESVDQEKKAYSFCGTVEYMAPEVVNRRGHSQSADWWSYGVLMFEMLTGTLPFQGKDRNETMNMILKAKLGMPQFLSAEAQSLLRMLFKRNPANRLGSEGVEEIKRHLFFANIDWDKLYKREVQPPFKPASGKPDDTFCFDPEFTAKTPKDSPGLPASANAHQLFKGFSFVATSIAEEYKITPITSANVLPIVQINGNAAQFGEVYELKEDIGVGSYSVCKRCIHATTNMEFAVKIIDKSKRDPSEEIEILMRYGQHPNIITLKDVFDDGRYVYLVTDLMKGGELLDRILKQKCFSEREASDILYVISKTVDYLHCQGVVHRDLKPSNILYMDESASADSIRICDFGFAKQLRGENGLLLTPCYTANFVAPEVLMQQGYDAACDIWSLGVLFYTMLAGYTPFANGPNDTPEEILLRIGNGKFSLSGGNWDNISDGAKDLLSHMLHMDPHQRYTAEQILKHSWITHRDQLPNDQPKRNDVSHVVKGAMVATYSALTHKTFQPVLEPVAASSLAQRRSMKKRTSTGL

For the molecule `O=C(NCC1CC1)c1ccc2nc(Nc3cc(CN4CCN(C(=O)CC(F)(F)F)CC4)ccn3)[nH]c2c1`, in [1], the Papp B→A at 2 h, 2 µM turned out to be 15.5 ×10⁻⁶ cm/s. Further, the pIC50 in the series with ACHN is less than 4.48; with SK-MEL-2, 5.47; in series [4], 5.86; in series [5], 7.03; on CDK9/cyclin T1 it was less than 4.70; in series [6] it was 7.10. The efflux ratio in [2] is 40. Also, in series [3], the apical-to-basolateral permeability (Papp A→B) at 2 h, 2 µM was determined as 0.39 ×10⁻⁶ cm/s.

Regarding `CCn1cc(-c2ccc3nc(Nc4cc(CN5CCN(C(=O)CC(F)(F)F)CC5)ccn4)[nH]c3c2)cn1`, in [1], the Papp B→A at 2 h, 2 µM is 17.3 ×10⁻⁶ cm/s. The negative logarithm of the IC50 (pIC50) at IKK epsilon/TBK1 is 5.80; in [7], 7.77; in series [4], 6.28; in series [8] it was 5.05; on CDK9/cyclin T1 it was 5.84; in series [6] it was 7.01. Besides, in [2], the efflux ratio was determined as 10. Besides, the Papp A→B at 2 h, 2 µM in [3] was found to be 1.7 ×10⁻⁶ cm/s.
